Laboratory results published in patent US20250288571A1 (Nested Therapeutics, Inc., priority 2024, published 2025).
“And” between values parts separate entries of the source, which are not always exact repeats. Equal values may be shown once.

Key:
[1] = tested on: pMEK; assay: pMEK AlphaLISA (MEK1 pS218/222), HCT116 cells, EGF stimulated; type: cell-based; conditions: Homo sapiens, HCT-116, 2 h compound, EGF 30 ng/ml 15 min
Method: (§1) Determination of pMEK IC50s
(§2) A549 cells were cultured in F12K/10% FBS media (ATCC CAT #21127022) and were seeded at 10000 cells/well and HCT116 cells were cultured in McCoy's 5A/10% FBS media (Gibco Cat #30-2007) were seeded at 15000 cells/well in 384 microplates (Corning CAT #3765). Cells were incubated overnight in a TC incubator. Compounds were serially diluted and added to cells for 2 h in a TC incubator. At the end of the 2 h EGF (R&D Systems 236-EG-200) was added at a final EGF concentration of 30 ng/ml and incubated for 15 minutes at 37° C. in a TC incubator. AlphaLisa (Perkin Elmer) was performed according to manufacturer's instructions (Perkin Elmer CAT #ALPHA.SF ULTRA MEK1 PS218/222). The percent (%) inhibition at each concentration of compound is calculated based on and relative to the AlphaLISA signal in the HPE and ZPE control wells contained within each assay plate. The ZPE control wells contain cells and DMSO as 0% inhibition, and the HPE control wells only contain cells and control compound (Sellekchem Staurosporin CAT #S1421) as 100% inhibition.

[2] = tested on: pMEK; assay: pMEK AlphaLISA (MEK1 pS218/222), A549 cells, EGF stimulated; type: cell-based; conditions: Homo sapiens, 2 h compound, EGF 30 ng/ml 15 min
Method: as §1, §2

[3] = tested on: IPC298 cells; assay: IPC298 Cell Titer Glow assay (CTG); conditions: for IC50: Homo sapiens, IPC-298, 72 h, read-out: CTG IC50 (nM) Cell Line: IPC298.2
[4] = tested on: HCT116 cells; assay: HCT116 Cell Titer Glow assay (CTG); conditions: for IC50 / viability at 1000 µM: Homo sapiens, HCT-116, 72 h; for IC50: read-out: CTG IC50 (nM) Cell Line: HCT116.20; for viability at 1000 µM: read-out: CTG % cell viability 1000 uM HCT116.20, HCT116 cells, 72 hours, 1000 uM
[5] = percent cells remaining after treatment

Row | IC50 [1] [nM] | IC50 [2] [nM] | IC50 [4] [nM] | Compound | IC50 [3] [nM] | further results
1 | < 10 | < 10 |  | CNS(=O)(=O)Nc1nccc(Cc2cncc(Nc3ccc(F)cc3F)c2C)c1F [Example 7, N-(2,4-difluorophenyl)-5-({3-fluoro-2-[(methylsulfamoyl)amino]pyridin-4-yl}methyl)-4-methylpyridin-3-amine] |  | 
2 | < 10 | < 10 |  | CNS(=O)(=O)Nc1nccc(Cc2cncc(Nc3ccc(C(F)(F)F)cc3F)c2C)c1F [Example 8, 5-({3-fluoro-2-[(methylsulfamoyl)amino]pyridin-4-yl}methyl)-N-[2-fluoro-4-(trifluoromethyl)phenyl]-4-methylpyridin-3-amine] |  | 
3 | < 10 | < 10 |  | CNS(=O)(=O)Nc1nccc(Cc2c[n+]([O-])cc(Nc3ccc(Cl)cc3F)c2C)c1F [Example 14, 3-[(4-chloro-2-fluorophenyl)amino]-5-({3-fluoro-2-[(methylsulfamoyl)amino]pyridin-4-yl}methyl)-4-methylpyridin-1-ium-1-olate] |  | 
4 | < 10 | < 10 | 10 to 100 | CNS(=O)(=O)Nc1nccc(Oc2cncc(Nc3ccc(Cl)cc3F)c2C)c1F [Example 15, N-(4-chloro-2-fluorophenyl)-5-({3-fluoro-2-[(methylsulfamoyl)amino]pyridin-4-yl}oxy)-4-methylpyridin-3-amine] | < 10 | 
5 | 10 to 100 | 10 to 100 | > 1000 | CNS(=O)(=O)Nc1nccc(C(C)c2cncc(Nc3ccc(Cl)cc3F)c2C)c1F (stereo not drawn) [Example 16] | 100 to 500 | viability at 1000 µM [4, 5]: 36.5%
6 | > 1000 | 500 to 1000 | > 1000 | Cc1c(Cc2ccnc(S(C)(=O)=O)c2F)cncc1Nc1ccc(F)cc1F [Example 17, N-(2,4-difluorophenyl)-5-[(3-fluoro-2-methanesulfonylpyridin-4-yl)methyl]-4-methylpyridin-3-amine] | > 1000 | CTG % cell viability 100 uM IPC298.2 ([3]; IPC298 cells, 72 hours, 100 uM, percent cells remaining after treatment): 72.73; % and 98.52%; CTG % cell viability 1000 uM HCT116.20 ([4]; HCT116 cells, 72 hours, 1000 uM, percent cells remaining after treatment): 83.74%; viability at 1000 µM [4, 5]: 68.2%
7 | < 10 | < 10 | 100 to 500 | CNS(=O)(=O)Nc1nccc(Cc2cncc(Nc3ccc(Cl)cc3F)c2)c1F [Example 18, 4-[[5-(4-chloro-2-fluoro-anilino)-3-pyridyl]methyl]-3-fluoro-N-(methylsulfamoyl)pyridin-2-amine] | 10 to 100 | 
8 | > 1000 | > 1000 |  | Cc1c(Cc2ccc(S(C)(=O)=O)cc2F)cncc1Nc1ccc(Cl)cc1F [Example 20, N-(4-chloro-2-fluoro-phenyl)-5-[(2-fluoro-4-methylsulfonyl-phenyl)methyl]-4-methyl-pyridin-3-amine] |  | 
9 | 10 to 100 | 10 to 100 | > 1000 | CNS(=O)(=O)Nc1nccc(Cc2cncc(Nc3ccc(Cl)cc3F)n2)c1F [Example 21, N-(4-chloro-2-fluoro-phenyl)-6-[[3-fluoro-2-(methylsulfamoylamino)-4-pyridyl]methyl]pyrazin-2-amine] | 500 to 1000 | 
10 | < 10 | < 10 | 100 to 500 | Cc1c(Cc2ccnc([S+](C)[O-])c2F)cncc1Nc1ccc(Br)cc1F (stereo not drawn) [Example 22] | 10 to 100 | 
11 | < 10 | < 10 | 10 to 100 | CNS(=O)(=O)Nc1nccc(Cc2cncc(Nc3ccc(OC)cc3F)c2C)c1F [Example 23, 5-({3-fluoro-2-[(methylsulfamoyl)amino]pyridin-4-yl}methyl)-N-(2-fluoro-4-methoxyphenyl)-4-methylpyridin-3-amine] |  | 
12 |  | 10 to 100 | 100 to 500 | CNS(=O)(=O)Nc1nccc(Cc2cncc(OC)c2C)c1F [Example 24, ({3-fluoro-4-[(5-methoxy-4-methylpyridin-3-yl)methyl]pyridin-2-yl}sulfamoyl)(methyl)amine] | < 10 | IC50 ([1]; numeric value): > 100 nM
13 | > 1000 | > 1000 |  | CNS(=O)(=O)Nc1ccc(Cc2cncc(Nc3ccc(Cl)cc3F)c2C)cc1OC [Example 25, N-(4-chloro-2-fluoro-phenyl)-5-[[3-methoxy-4-(methylsulfamoylamino)phenyl]methyl]-4-methyl-pyridin-3-amine] |  | 
14 | < 10 | < 10 | 100 to 500 | CNS(=O)(=O)Nc1nccc(Cc2cncc(Nc3ccc(Cl)cc3F)c2F)c1F [Example 26, 4-[[5-(4-chloro-2-fluoro-anilino)-4-fluoro-3-pyridyl]methyl]-3-fluoro-N-(methylsulfamoyl)pyridin-2-amine] | 10 to 100 | 
15 | 10 to 100 | 10 to 100 |  | CNS(=O)(=O)Nc1nccc(Cc2cncc(Oc3ncc(Cl)cc3F)c2C)c1F [Example 29, {[4-({5-[(5-chloro-3-fluoropyridin-2-yl)oxy]-4-methylpyridin-3-yl}methyl)-3-fluoropyridin-2-yl]sulfamoyl}(methyl)amine] |  | 
16 | 10 to 100 | 10 to 100 |  | C=CCOc1cncc(Cc2ccnc(NS(=O)(=O)NC)c2F)c1C [Example 30, 4-[(5-allyloxy-4-methyl-3-pyridyl)methyl]-3-fluoro-N-(methylsulfamoyl)pyridin-2-amine] |  | 
17 | > 1000 | > 1000 |  | CNS(=O)(=O)Nc1nccc(Cc2cncc(-c3ncccc3F)c2C)c1F [Example 31, 3-fluoro-4-[[5-(3-fluoro-2-pyridyl)-4-methyl-3-pyridyl]methyl]-N-(methylsulfamoyl)pyridin-2-amine] |  | 
18 | > 1000 | > 1000 |  | CNS(=O)(=O)Nc1nccc(Cc2cncc(-c3ncc(Cl)cc3F)c2C)c1F [Example 32, 4-[[5-(5-chloro-3-fluoro-2-pyridyl)-4-methyl-3-pyridyl]methyl]-3-fluoro-N-(methylsulfamoyl)pyridin-2-amine] |  | 
19 | > 1000 | 500 to 1000 |  | CNS(=O)(=O)Nc1nccc(Cc2cncc(OCc3ncccc3F)c2C)c1F [Example 34, {[3-fluoro-4-({5-[(3-fluoropyridin-2-yl)methoxy]-4-methylpyridin-3-yl}methyl)pyridin-2-yl]sulfamoyl}(methyl)amine] |  | 
20 | < 10 | < 10 |  | CNS(=O)(=O)Nc1nccc(Cc2cncc(N(C)c3ccc(Cl)cc3F)c2C)c1F [Example 36, N-(4-chloro-2-fluorophenyl)-5-({3-fluoro-2-[(methylsulfamoyl)amino]pyridin-4-yl}methyl)-N,4-dimethylpyridin-3-amine] |  | 
21 |  |  | < 10 | CNS(=O)(=O)Nc1nccc(Oc2cncc(Nc3ccc(C4CC4)cc3F)c2C)c1F [Example 97, 4-[[5-(4-cyclopropyl-2-fluoro-anilino)-4-methyl-3-pyridyl]oxy]-3-fluoro-N-(methylsulfamoyl)pyridin-2-amine] | < 10 | 
22 |  |  | < 10 | CNS(=O)(=O)Nc1nccc(Cc2cncc(Oc3ccc(C4CC4)cc3F)c2C)c1F [Example 99, 4-[[5-(4-cyclopropyl-2-fluoro-phenoxy)-4-methyl-3-pyridyl]methyl]-3-fluoro-N-(methylsulfamoyl)pyridin-2-amine] | < 10 | 
23 |  |  | 10 to 100 | CNS(=O)(=O)Nc1nccc(Oc2cncc(Oc3ccc(Br)cc3F)c2C)c1F [Example 100, 4-[[5-(4-bromo-2-fluoro-phenoxy)-4-methyl-3-pyridyl]oxy]-3-fluoro-N-(methylsulfamoyl)pyridin-2-amine] | < 10 | 
24 |  |  | 10 to 100 | [2H]C([2H])([2H])c1ccc(Oc2cncc(Cc3ccnc(NS(=O)(=O)NC)c3F)c2C)c(F)c1 [Example 101, 3-fluoro-4-[[5-[2-fluoro-4-(trideuteriomethyl)phenoxy]-4-methyl-3-pyridyl]methyl]-N-(methylsulfamoyl)pyridin-2-amine] | < 10 | 
25 |  |  | 10 to 100 | CNS(=O)(=O)Nc1nccc(Oc2cncc(Oc3ccc(C4CC4)cc3F)c2C)c1F [Example 102, 4-[[5-(4-cyclopropyl-2-fluoro-phenoxy)-4-methyl-3-pyridyl]oxy]-3-fluoro-N-(methylsulfamoyl)pyridin-2-amine] | < 10 | 
26 |  |  | 100 to 500 | CNS(=O)(=O)Nc1nccc(Cc2cncc(Oc3ccc(C)c(F)c3)c2C)c1F [Example 103, 3-fluoro-4-[[5-(3-fluoro-4-methyl-phenoxy)-4-methyl-3-pyridyl]methyl]-N-(methylsulfamoyl)pyridin-2-amine] | < 10 | 
27 |  |  | < 10 | [2H]C([2H])([2H])c1ccc(Nc2cncc(Cc3ccnc(NS(=O)(=O)NC)c3F)c2C)c(F)c1 [Example 104, 3-fluoro-4-[[5-[2-fluoro-4-(trideuteriomethyl)anilino]-4-methyl-3-pyridyl]methyl]-N-(methylsulfamoyl)pyridin-2-amine] | < 10 | 
